Measured values as given in US10138227B2, “Heteroaryl substituted pyridines and methods of use” (AbbVie S.à.r.l., priority 2016, dated 2018).

Biological target: T1, CFTR ΔF508 mutant (Homo sapiens, UniProt P13569, DEL508-508)
T1 construct: expressed in transfected cells; host or cells: CFBE41o- cells transduced with adenoviral vectors
Test: YFP-halide influx assay for the CFTR-ΔF508 mutation
Format: cell-based
Details: CFBE41o- cells expressing CFTR ΔF508 and YFP reporter, forskolin 10.67 μM; for EC50: (1-F/F0) vs concentration
Excerpt: The YFP halide influx assay measured the functionality of the cystic fibrosis Transmembrane Conductance regulator (CFTR) channels in the cystic fibrosis bronchial epithelium cell line CFBE41o-. The assay was used to evaluate the capacity of compounds to increase the open probability of existing CFTR channels in the membrane. It makes use of the observation that the yellow fluorescent protein (YFP) variant YFP H148Q, I152L, F47L has its fluorescence substantially quenched by halide ions like Cl^− and I^− (Galietta, L. J. V., Haggie, P. M., Verkman, A. S., 2001. Green fluorescent protein-based halide indicators with improved chloride and iodide affinities. FEBS Lett. 499, 220-224. doi:10.1016/S0014-5793(01)02561-3; Nagai, T., Ibata, K., Park, E. S., Kubota, M., Mikoshiba, K., Miyawaki, A., 2002. A variant of yellow fluorescent protein with fast and efficient maturation for cell-biological applications. Nat. Biotechnol. 20, 87-90. doi:10.1038/nbt0102-87).
For this purpose, CFBE410-cells were seeded in 384 well plates (3000 CFBE cells/well). One day after seeding, the CFBE cells were transduced with adenoviral vectors that direct the expression of the CFTR ΔF508 mutant and of the YFP reporter. Cells were incubated at 27° C., 5% CO2 for 24 hours so as to allow for the proper folding and migration to the membrane of the CFTR channel or treated with a CFTR modulator during 24 hours at 37° C.
The I-induced quenching of fluorescence was recorded on an immediately after injection of iodide for 2 minutes on an FDSS/μCell (Hamamatsu). The capacity of a compound to increase the channel opening was directly correlated with the decrease in fluorescence, and was expressed as (1-(fluorescence after 36 seconds (F)/fluorescence before injection (F0))) and an EC50 was derived from a (1-F/F0) vs compound concentration plot.

T1 sequence (P13569 with tags, fused parts or gaps DEL508-508): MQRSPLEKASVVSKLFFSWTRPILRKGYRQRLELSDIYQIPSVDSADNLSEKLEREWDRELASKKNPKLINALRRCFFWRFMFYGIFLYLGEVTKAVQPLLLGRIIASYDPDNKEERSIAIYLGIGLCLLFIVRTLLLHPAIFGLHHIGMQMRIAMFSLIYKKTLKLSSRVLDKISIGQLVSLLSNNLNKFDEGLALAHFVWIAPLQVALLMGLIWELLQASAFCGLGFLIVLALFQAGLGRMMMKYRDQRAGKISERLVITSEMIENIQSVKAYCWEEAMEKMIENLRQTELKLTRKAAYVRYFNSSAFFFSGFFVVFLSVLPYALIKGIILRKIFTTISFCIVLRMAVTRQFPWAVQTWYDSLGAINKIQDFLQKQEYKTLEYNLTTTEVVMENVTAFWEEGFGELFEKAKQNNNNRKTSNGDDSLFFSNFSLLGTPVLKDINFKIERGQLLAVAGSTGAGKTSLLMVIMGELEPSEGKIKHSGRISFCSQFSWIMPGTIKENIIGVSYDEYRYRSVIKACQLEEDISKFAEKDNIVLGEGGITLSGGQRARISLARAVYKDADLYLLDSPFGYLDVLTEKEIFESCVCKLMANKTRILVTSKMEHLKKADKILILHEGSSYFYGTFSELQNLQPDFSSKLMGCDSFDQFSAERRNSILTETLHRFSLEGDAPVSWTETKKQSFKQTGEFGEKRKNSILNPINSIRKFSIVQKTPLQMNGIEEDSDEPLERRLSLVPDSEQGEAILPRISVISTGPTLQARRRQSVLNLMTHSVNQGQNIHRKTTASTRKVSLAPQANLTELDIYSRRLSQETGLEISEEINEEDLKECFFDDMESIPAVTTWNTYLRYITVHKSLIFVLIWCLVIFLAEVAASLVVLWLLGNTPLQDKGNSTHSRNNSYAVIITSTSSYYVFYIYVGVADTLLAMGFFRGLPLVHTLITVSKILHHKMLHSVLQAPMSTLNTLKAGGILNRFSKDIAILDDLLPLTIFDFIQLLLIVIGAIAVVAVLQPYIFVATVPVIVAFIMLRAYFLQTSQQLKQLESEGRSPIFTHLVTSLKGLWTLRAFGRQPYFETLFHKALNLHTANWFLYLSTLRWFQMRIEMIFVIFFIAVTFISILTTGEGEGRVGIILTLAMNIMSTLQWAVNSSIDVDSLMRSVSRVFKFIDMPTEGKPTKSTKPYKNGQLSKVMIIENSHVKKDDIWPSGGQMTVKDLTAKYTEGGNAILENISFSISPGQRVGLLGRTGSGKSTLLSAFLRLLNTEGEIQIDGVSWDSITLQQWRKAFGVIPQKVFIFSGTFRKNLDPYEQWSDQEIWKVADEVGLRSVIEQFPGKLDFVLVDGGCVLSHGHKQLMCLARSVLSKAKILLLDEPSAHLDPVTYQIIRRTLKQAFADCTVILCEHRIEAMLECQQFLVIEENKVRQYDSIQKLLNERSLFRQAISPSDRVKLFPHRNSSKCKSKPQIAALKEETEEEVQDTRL

| % Activation | EC50 | Compound |
| --- | --- | --- |
| 105.02% | 36.6 nM | Nc1cc(S(=O)(=O)c2ccc(OC(F)(F)F)cc2)cnc1-c1nnc(C[C@H]2CCCO2)s1 [Compound 32, 2-(5-{[(2R)-oxolan-2-yl]methyl}-1,3,4-thiadiazol-2-yl)-5-[4-(trifluoromethoxy)benzene-1-sulfonyl]pyridin-3-amine] |
| 103.5% | 39.8 nM | COCCOCc1nnc(-c2ncc(S(=O)(=O)c3ccc(OC(F)(F)F)cc3)cc2N)o1 [Compound 33, 2-{5-[(2-methoxyethoxy)methyl]-1,3,4-oxadiazol-2-yl}-5-[4-(trifluoromethoxy)benzene-1-sulfonyl]pyridin-3-amine] |
| 102.19% | 21.3 nM | CO[C@H](C)c1nnc(-c2ncc(S(=O)(=O)c3ccc(OC(F)(F)F)cc3)cc2N)o1 [Compound 34, 2-{5-[(1R)-1-methoxyethyl]-1,3,4-oxadiazol-2-yl}-5-[4-(trifluoromethoxy)benzene-1-sulfonyl]pyridin-3-amine] |
| 98.52% | 20.8 nM | CO[C@@H](C)c1nnc(-c2ncc(S(=O)(=O)c3ccc(OC(F)(F)F)cc3)cc2N)o1 [Compound 35, 2-{5-[(1S)-1-methoxyethyl]-1,3,4-oxadiazol-2-yl}-5-[4-(trifluoromethoxy)benzene-1-sulfonyl]pyridin-3-amine] |
| 102.93% | 12.3 nM | CCOCc1nnc(-c2ncc(S(=O)(=O)c3ccc(OC(F)(F)F)cc3)cc2N)o1 [Compound 36, 2-[5-(ethoxymethyl)-1,3,4-oxadiazol-2-yl]-5-[4-(trifluoromethoxy)benzene-1-sulfonyl]pyridin-3-amine] |
| 119.85% | 28.7 nM | COCc1nnc(-c2ncc(S(=O)(=O)c3ccc(OC(F)(F)F)cc3)cc2N)o1 [Compound 37, 2-[5-(methoxymethyl)-1,3,4-oxadiazol-2-yl]-5-[4-(trifluoromethoxy)benzene-1-sulfonyl]pyridin-3-amine] |
| 109.05% | 224 nM | Nc1cc(S(=O)(=O)c2ccc(OC(F)(F)F)cc2)cnc1-c1nnc(COc2cccnc2)o1 [Compound 38, 2-(5-{[(pyridin-3-yl)oxy]methyl}-1,3,4-oxadiazol-2-yl)-5-[4-(trifluoromethoxy)benzene-1-sulfonyl]pyridin-3-amine] |
| 119.45% | 9.88 nM | Nc1cc(S(=O)(=O)c2ccc(OC(F)(F)F)cc2)cnc1-c1nnc(COC(F)F)o1 [Compound 39, 2-{5-[(difluoromethoxy)methyl]-1,3,4-oxadiazol-2-yl}-5-[4-(trifluoromethoxy)benzene-1-sulfonyl]pyridin-3-amine] |
| 106.65% | 36.8 nM | Nc1cc(S(=O)(=O)c2ccc(OC(F)(F)F)cc2)cnc1-c1nnc(C[C@@H]2CCCO2)o1 [Compound 40, 2-(5-{[(2S)-oxolan-2-yl]methyl}-1,3,4-oxadiazol-2-yl)-5-[4-(trifluoromethoxy)benzene-1-sulfonyl]pyridin-3-amine] |
| 96.97% | 41.3 nM | Nc1cc(S(=O)(=O)c2ccc(OC(F)(F)F)cc2)cnc1-c1nnc(C[C@H]2CCCO2)o1 [Compound 41, 2-(5-{[(2R)-oxolan-2-yl]methyl}-1,3,4-oxadiazol-2-yl)-5-[4-(trifluoromethoxy)benzene-1-sulfonyl]pyridin-3-amine] |
| 109.65% | 1.57 nM | CC(O)c1nnc(-c2ncc(S(=O)(=O)c3ccc(OC(F)(F)F)cc3)cc2N)o1 (stereo not drawn) [Compound 42, 1-(5-{3-amino-5-[4-(trifluoromethoxy)benzene-1-sulfonyl]pyridin-2-yl}-1,3,4-oxadiazol-2-yl)ethan-1-ol] |
| 110.8% | < 0.77 nM | CC(C)(O)c1nnc(-c2ncc(S(=O)(=O)c3ccc(OC(F)(F)F)cc3)cc2N)o1 [Compound 43, 2-(5-{3-amino-5-[4-(trifluoromethoxy)benzene-1-sulfonyl]pyridin-2-yl}-1,3,4-oxadiazol-2-yl)propan-2-ol] |
| 105.25% | 1.63 nM | Nc1cc(S(=O)(=O)c2ccc(OC(F)(F)F)cc2)cnc1-c1nnc([C@@H](O)Cc2ccccc2)o1 [Compound 44, (1S)-1-(5-{3-amino-5-[4-(trifluoromethoxy)benzene-1-sulfonyl]pyridin-2-yl}-1,3,4-oxadiazol-2-yl)-2-phenyl ethan-1-ol] |
| 109.25% | 1.13 nM | Nc1cc(S(=O)(=O)c2ccc(OC(F)(F)F)cc2)cnc1-c1nnc([C@@H](O)c2ccccc2)o1 [Compound 45, (S)-(5-{3-amino-5-[4-(trifluoromethoxy)benzene-1-sulfonyl]pyridin-2-yl}-1,3,4-oxadiazol-2-yl)(phenyl)methanol] |
| 82.3% | > 1660 nM | COC(C)(C)c1noc(-c2ncc(S(=O)(=O)c3ccc(OC(F)(F)F)cc3)cc2N)n1 [Compound 46, 2-[3-(2-methoxypropan-2-yl)-1,2,4-oxadiazol-5-yl]-5-[4-(trifluoromethoxy)benzene-1-sulfonyl]pyridin-3-amine] |
| 59.4% | > 1660 nM | COC(C)c1noc(-c2ncc(S(=O)(=O)c3ccc(OC(F)(F)F)cc3)cc2N)n1 (stereo not drawn) [Compound 47, 2-[3-(1-methoxyethyl)-1,2,4-oxadiazol-5-yl]-5-[4-(trifluoromethoxy)benzene-1-sulfonyl]pyridin-3-amine] |
| 6.28% | > 4990 nM | Nc1cc(S(=O)(=O)c2ccc(OC(F)(F)F)cc2)cnc1-c1nc(C2CCOCC2)no1 [Compound 48, 2-[3-(oxan-4-yl)-1,2,4-oxadiazol-5-yl]-5-[4-(trifluoromethoxy)benzene-1-sulfonyl]pyridin-3-amine] |
| 29.2% | > 3320 nM | Nc1cc(S(=O)(=O)c2ccc(OC(F)(F)F)cc2)cnc1-c1nc(COc2ccc(F)cc2)no1 [Compound 49, 2-{3-[(4-fluorophenoxy)methyl]-1,2,4-oxadiazol-5-yl}-5-[4-(trifluoromethoxy)benzene-1-sulfonyl]pyridin-3-amine] |
| 45.59% | > 1660 nM | Nc1cc(S(=O)(=O)c2ccc(OC(F)(F)F)cc2)cnc1-c1nc(CC2CC2)no1 [Compound 50, 2-[3-(cyclopropylmethyl)-1,2,4-oxadiazol-5-yl]-5-[4-(trifluoromethoxy)benzene-1-sulfonyl]pyridin-3-amine] |
| 23.23% | > 3320 nM | Nc1cc(S(=O)(=O)c2ccc(OC(F)(F)F)cc2)cnc1-c1nc(CC2CCCO2)no1 (stereo not drawn) [Compound 51, 2-{3-[(oxolan-2-yl)methyl]-1,2,4-oxadiazol-5-yl}-5-[4-(trifluoromethoxy)benzene-1-sulfonyl]pyridin-3-amine] |
| 3.42% | > 4990 nM | Nc1cc(S(=O)(=O)c2ccc(OC(F)(F)F)cc2)cnc1-c1nc(C2CC2)no1 [Compound 52, 2-(3-cyclopropyl-1,2,4-oxadiazol-5-yl)-5-[4-(trifluoromethoxy)benzene-1-sulfonyl]pyridin-3-amine] |
| 15.28% | > 4990 nM | Nc1cc(S(=O)(=O)c2ccc(OC(F)(F)F)cc2)cnc1-c1nc(C2CCOC2)no1 (stereo not drawn) [Compound 53, 2-[3-(oxolan-3-yl)-1,2,4-oxadiazol-5-yl]-5-[4-(trifluoromethoxy)benzene-1-sulfonyl]pyridin-3-amine] |
| 12.02% | > 4990 nM | CC(C)(C)c1noc(-c2ncc(S(=O)(=O)c3ccc(OC(F)(F)F)cc3)cc2N)n1 [Compound 54, 2-(3-tert-butyl-1,2,4-oxadiazol-5-yl)-5-[4-(trifluoromethoxy)benzene-1-sulfonyl]pyridin-3-amine] |
| 2.76% | > 4990 nM | COCCc1noc(-c2ncc(S(=O)(=O)c3ccc(OC(F)(F)F)cc3)cc2N)n1 [Compound 55, 2-[3-(2-methoxyethyl)-1,2,4-oxadiazol-5-yl]-5-[4-(trifluoromethoxy)benzene-1-sulfonyl]pyridin-3-amine] |
| 93.64% | 2.41 nM | Nc1c(-c2nnc(CO)o2)ncc(S(=O)(=O)c2ccc(OC(F)(F)F)cc2)c1Cl [Compound 57, (5-{3-amino-4-chloro-5-[4-(trifluoromethoxy)benzene-1-sulfonyl]pyridin-2-yl}-1,3,4-oxadiazol-2-yl)methanol] |
| 104.91% | 3.51 nM | Nc1cc(S(=O)(=O)c2cccc(OC(F)(F)F)c2)cnc1-c1nnc(CO)o1 [Compound 58, (5-{3-amino-5-[3-(trifluoromethoxy)benzene-1-sulfonyl]pyridin-2-yl}-1,3,4-oxadiazol-2-yl)methanol] |
| 106.56% | 4.25 nM | Nc1cc(S(=O)(=O)c2ccccc2OC(F)(F)F)cnc1-c1nnc(CO)o1 [Compound 59, (5-{3-amino-5-[2-(trifluoromethoxy)benzene-1-sulfonyl]pyridin-2-yl}-1,3,4-oxadiazol-2-yl)methanol] |
